From patent US20100137449A1, “SUBSTITUTED 1,3-CYCLOPENTADIONE MULTI-TARGET PROTEIN KINASE MODULATORS OF CANCER, ANGIOGENESIS AND THE INFLAMMATORY PATHWAYS ASSOCIATED THEREWITH” (METAPROTEOMICS, LLC, priority 2007, published 2010)

Legend:
Experiment in all cases: KinaseProfiler Assay
Abl(Y253F)(h) = Abl(Y253F)(h) (Homo sapiens, UniProt P00519, Y253F)
MAPK1(h), ERK1 = MAPK1(h), ERK1 (Homo sapiens, UniProt P27361)
PKG1α(h) = molecular target: T1, PKG1α(h) (Homo sapiens, UniProt Q13976)
T1 sequence (Q13976 1-671): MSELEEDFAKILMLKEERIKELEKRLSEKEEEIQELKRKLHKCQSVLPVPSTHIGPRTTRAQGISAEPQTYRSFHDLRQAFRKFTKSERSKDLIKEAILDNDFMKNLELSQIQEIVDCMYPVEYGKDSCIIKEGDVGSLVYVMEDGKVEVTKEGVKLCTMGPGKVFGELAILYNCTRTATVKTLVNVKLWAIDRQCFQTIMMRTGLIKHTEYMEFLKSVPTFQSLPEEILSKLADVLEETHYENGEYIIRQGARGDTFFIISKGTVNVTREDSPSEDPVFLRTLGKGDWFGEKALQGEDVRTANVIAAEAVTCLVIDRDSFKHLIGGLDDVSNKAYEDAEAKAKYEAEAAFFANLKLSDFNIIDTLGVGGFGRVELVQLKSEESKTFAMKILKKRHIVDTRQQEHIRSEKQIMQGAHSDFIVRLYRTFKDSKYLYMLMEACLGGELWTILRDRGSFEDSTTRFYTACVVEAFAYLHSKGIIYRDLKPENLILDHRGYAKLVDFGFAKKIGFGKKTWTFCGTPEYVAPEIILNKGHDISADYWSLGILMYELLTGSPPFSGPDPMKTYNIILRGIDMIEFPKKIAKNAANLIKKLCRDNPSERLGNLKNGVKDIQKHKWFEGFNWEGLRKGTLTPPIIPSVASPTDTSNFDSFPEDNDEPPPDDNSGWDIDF

PAK3(h) = PAK3(h) (Homo sapiens, UniProt O75914)
EphB1(h) = molecular target: T2, EphB1(h) (Homo sapiens, UniProt P54762)
T2 sequence (P54762 18-984): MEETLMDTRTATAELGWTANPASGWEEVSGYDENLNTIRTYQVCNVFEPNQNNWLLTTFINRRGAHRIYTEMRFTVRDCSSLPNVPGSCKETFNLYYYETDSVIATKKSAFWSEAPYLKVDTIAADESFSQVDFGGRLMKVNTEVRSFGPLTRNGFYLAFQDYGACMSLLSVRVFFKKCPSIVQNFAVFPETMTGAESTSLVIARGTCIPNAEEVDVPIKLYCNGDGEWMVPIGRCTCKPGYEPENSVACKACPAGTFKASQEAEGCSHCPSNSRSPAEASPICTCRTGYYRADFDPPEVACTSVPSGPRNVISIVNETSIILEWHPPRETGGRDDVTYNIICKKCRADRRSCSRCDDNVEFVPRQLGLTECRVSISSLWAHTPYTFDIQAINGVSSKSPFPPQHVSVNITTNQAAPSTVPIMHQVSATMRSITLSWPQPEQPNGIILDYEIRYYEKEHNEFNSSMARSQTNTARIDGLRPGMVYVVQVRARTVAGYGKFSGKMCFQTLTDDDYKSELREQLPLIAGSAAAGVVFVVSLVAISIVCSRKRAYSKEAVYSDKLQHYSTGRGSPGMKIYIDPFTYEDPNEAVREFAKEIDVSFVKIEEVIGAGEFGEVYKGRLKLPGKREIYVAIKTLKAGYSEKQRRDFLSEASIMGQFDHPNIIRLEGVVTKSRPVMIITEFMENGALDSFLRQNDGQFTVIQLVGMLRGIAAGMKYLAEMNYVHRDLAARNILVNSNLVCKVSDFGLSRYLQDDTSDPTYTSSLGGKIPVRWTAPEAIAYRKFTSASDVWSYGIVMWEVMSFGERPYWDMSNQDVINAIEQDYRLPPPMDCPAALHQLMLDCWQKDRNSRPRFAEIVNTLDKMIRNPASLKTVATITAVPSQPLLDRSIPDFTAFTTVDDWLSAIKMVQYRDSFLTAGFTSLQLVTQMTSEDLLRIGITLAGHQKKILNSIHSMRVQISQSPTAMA

Abl(T315I)(h) = Abl(T315I)(h) (Homo sapiens, UniProt P00519, T315I)
NLK(h) = molecular target: T3, NLK(h) (Homo sapiens, UniProt Q9UBE8)
T3 sequence (Q9UBE8 1-527): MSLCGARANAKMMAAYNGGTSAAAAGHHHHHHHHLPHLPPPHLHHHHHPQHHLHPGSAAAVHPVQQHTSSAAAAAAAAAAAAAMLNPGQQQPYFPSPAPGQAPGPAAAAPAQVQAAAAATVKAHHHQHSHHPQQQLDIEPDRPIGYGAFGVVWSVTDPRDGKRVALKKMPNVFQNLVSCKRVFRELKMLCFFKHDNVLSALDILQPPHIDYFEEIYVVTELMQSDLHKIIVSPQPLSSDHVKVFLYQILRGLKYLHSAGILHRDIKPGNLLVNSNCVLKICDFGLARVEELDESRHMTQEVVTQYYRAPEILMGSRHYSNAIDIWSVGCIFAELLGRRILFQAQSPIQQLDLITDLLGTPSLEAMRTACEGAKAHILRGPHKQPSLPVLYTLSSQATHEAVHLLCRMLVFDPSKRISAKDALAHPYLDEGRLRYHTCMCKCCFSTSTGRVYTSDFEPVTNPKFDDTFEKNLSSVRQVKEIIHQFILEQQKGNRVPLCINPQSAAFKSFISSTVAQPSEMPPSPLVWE

Chain of MAPK1(h), ERK1 (P27361 whole entry): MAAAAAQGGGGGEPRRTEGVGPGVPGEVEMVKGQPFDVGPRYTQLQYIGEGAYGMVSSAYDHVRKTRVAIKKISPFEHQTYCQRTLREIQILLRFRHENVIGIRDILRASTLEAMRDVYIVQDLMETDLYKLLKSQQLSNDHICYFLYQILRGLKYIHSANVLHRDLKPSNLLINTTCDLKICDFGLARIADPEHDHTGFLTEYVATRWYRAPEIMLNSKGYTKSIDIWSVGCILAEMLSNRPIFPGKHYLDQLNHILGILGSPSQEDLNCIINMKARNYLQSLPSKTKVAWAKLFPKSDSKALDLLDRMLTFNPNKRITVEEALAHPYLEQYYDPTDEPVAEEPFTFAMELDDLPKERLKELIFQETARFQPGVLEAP
Chain of PAK3(h) (O75914 whole entry): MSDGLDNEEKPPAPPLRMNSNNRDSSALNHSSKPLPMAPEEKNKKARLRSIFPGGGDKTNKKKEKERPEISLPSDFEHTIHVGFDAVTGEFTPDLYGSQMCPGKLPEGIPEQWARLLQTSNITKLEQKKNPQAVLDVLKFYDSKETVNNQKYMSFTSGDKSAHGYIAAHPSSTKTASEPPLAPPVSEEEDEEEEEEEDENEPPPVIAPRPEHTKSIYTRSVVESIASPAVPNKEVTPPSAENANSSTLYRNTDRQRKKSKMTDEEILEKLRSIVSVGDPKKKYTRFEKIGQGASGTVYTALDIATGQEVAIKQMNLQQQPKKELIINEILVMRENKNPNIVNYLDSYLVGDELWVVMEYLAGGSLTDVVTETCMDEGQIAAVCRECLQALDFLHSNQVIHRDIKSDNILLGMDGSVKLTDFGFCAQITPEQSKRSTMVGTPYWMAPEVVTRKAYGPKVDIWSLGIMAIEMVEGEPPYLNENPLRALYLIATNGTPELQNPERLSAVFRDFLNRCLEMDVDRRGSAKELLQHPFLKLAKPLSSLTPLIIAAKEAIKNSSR

For `CC(C)CCC(=O)[C@]1(O)C(O)=C(C(=O)C(C)C)C(=O)[C@H]1CCC(C)C` [TH2, tetrahydroiso-cohumulone], the kinase inhibition (Abl(Y253F)(h); 1 μg/ml) was 117% of control, the kinase inhibition (Abl(Y253F)(h); 5 μg/ml) was 100% of control and the kinase inhibition (Abl(Y253F)(h); 25 μg/ml) was 83% of control. The kinase inhibition (Abl(Y253F)(h); 50 μg/ml) was 65% of control, the kinase inhibition (Abl(Y253F)(h); 100 μg/ml) was 58% of control and the kinase inhibition (MAPK1(h), ERK1; 1 μg/ml) was 93% of control. The kinase inhibition (MAPK1(h), ERK1; 5 μg/ml) was 83% of control, the kinase inhibition (MAPK1(h), ERK1; 25 μg/ml) was 72% of control and the kinase inhibition (MAPK1(h), ERK1; 50 μg/ml) was 75% of control. For the same molecule, the kinase inhibition (MAPK1(h), ERK1; 100 μg/ml) was 67% of control, the kinase inhibition (PKG1α(h); 1 μg/ml) was 103% of control and the kinase inhibition (PKG1α(h); 5 μg/ml) was 112% of control. For the same molecule, the kinase inhibition (PKG1α(h); 25 μg/ml) was 97% of control, the kinase inhibition (PKG1α(h); 50 μg/ml) was 92% of control and the kinase inhibition (PKG1α(h); 100 μg/ml) was 73% of control. The kinase inhibition (PAK3(h); 1 μg/ml) was 103% of control, the kinase inhibition (PAK3(h); 5 μg/ml) was 102% of control and the kinase inhibition (PAK3(h); 25 μg/ml) was 49% of control. For the same molecule, the kinase inhibition (PAK3(h); 50 μg/ml) was 47% of control, the kinase inhibition (PAK3(h); 100 μg/ml) was 40% of control and the kinase inhibition (EphB1(h); 1 μg/ml) was 127% of control. For the same molecule, the kinase inhibition (EphB1(h); 5 μg/ml) was 82% of control, the kinase inhibition (EphB1(h); 25 μg/ml) was 144% of control and the kinase inhibition (EphB1(h); 50 μg/ml) was 195% of control. For the same molecule, the kinase inhibition (EphB1(h); 100 μg/ml) was 105% of control, the kinase inhibition (Abl(T315I)(h); 1 μg/ml) was 102% of control and the kinase inhibition (Abl(T315I)(h); 5 μg/ml) was 98% of control. For the same molecule, the kinase inhibition (Abl(T315I)(h); 25 μg/ml) was 79% of control, the kinase inhibition (Abl(T315I)(h); 50 μg/ml) was 68% of control and the kinase inhibition (Abl(T315I)(h); 100 μg/ml) was 58% of control. For the same molecule, the kinase inhibition (NLK(h); 1 μg/ml) was 105% of control, the kinase inhibition (NLK(h); 5 μg/ml) was 104% of control and the kinase inhibition (NLK(h); 25 μg/ml) was 98% of control. For the same molecule, the kinase inhibition (NLK(h); 50 μg/ml) was 96% of control and the kinase inhibition (NLK(h); 100 μg/ml) was 85% of control.
